Results on 25 molecules are retold here after patent US6362369B1, “Phthalic acid diamide derivatives fluorine-containing aniline compounds as starting material, agricultural and horticultural insecticides, and a method for application of the insecticides” (Nihon Nohyaku Co., Ltd., priority 1997, dated 2002).

SMILES strings stand for the structures.

Holding throughout (format): in vivo
Test [1] relates to rice leafroller (Cnaphalocrocis medinalis). The experiment in a line: Insecticidal effect on rice leafroller (Test Example 3). Conditions: 500 ppm, 25° C., humidity 70%; for Insecticidal effect, Test Example 3: rice lamina immersed; for Insecticidal effect, Test Example 3 / Insecticidal effect on rice leafroller (Test Example 3), judged grade: four days after inoculation; for Insecticidal effect on rice leafroller (Test Example 3), judged grade / Insecticidal effect (Test Example 3), judged from mortality: rice lamina dip; for Insecticidal effect on rice leafroller (Test Example 3), judged grade: third-instar larvae; for Insecticidal effect (Test Example 3), judged from mortality: 4 days after inoculation. Put shortly: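 Insecticidal effect is judged by a predefined criterion from dead/alive counts four days after infesting air-dried lamina with third-instar larvae, kept on moistened filter paper at 25° C, 70% humidity.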

The test system of test [2] is diamondback moth (Plutella xylostella). The experiment in a line: Insecticidal effect on diamondback moth (Test Example 1). Conditions: for Insecticidal effect, Test Example 1 / Insecticidal effect (Test Example 1), judged from mortality: diamondback moth; for Insecticidal effect on diamondback moth (Test Example 1), judged grade: mortality judged according to the criterion shown in Test Example 1; for Insecticidal effect (Test Example 1), judged from mortality: judged by the criterion of Test Example 1. Put shortly:
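Oviposition by adults on Chinese cabbage seedling; immersion; air-dry; 25° C room. Count of hatched larvae at day 6 post-immersion → mortality → effect graded by criterion. Triplicate, 10 insects/group.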

Test [3] concerns common cutworm (Spodoptera Litura). Nature of the test: Insecticidal effect on common cutworm (Test Example 2). Conditions: 500 ppm, 25° C.; for Insecticidal effect, Test Example 2: cabbage leaf immersed; for Insecticidal effect, Test Example 2 / Insecticidal effect on common cutworm (Test Example 2), judged grade: eight days after inoculation; for Insecticidal effect on common cutworm (Test Example 2), judged grade / Insecticidal effect (Test Example 2), judged from mortality: cabbage leaf dip; for Insecticidal effect on common cutworm (Test Example 2), judged grade: second-instar larvae; for Insecticidal effect (Test Example 2), judged from mortality: 8 days after inoculation. Put shortly: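 Insecticidal effect was rated from percent mortality of second-instar larvae exposed to air-dried treatment at 25° C for 8 days.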

Where [4] appears, read: rice leafroller third-instar larvae.
The mark [5] stands for this setting: mortality judged by criterion of Test Example 1.
Setting [6] is: common cutworm second-instar larvae.
The mark [7] stands for this setting: third-instar larvae of rice leafroller.
Setting [8] is: judged by the mortality criterion of Test Example 1.
The mark [9] stands for this setting: second-instar larvae of common cutworm.

On to `Cc1cc(C(F)(F)C(F)(F)F)ccc1NC(=O)c1cccc(C)c1C(=O)NC(C)C` [compound 953], for which the “Insecticidal effect, Test Example 3” value in test [1] (setting [4]) is listed as “A (100)”. Besides, in test [2] (setting [5]), the “Insecticidal effect, Test Example 1” value is given as “A (100)”. Also, the “Insecticidal effect, Test Example 2” value in test [3] (setting [6]) is given as “A (100)”.
As to `Cc1cc(C(F)(F)C(F)(F)C(F)(F)F)ccc1NC(=O)c1cccc(I)c1C(=O)NC(C)C` [compound 373], the “Insecticidal effect, Test Example 3” value in test [1] (setting [7]) is on record as “A (100)”. Moreover, the “Insecticidal effect, Test Example 1” value in test [2] (setting [8]) was “A (100)”. In test [3] (setting [9]), the “Insecticidal effect, Test Example 2” value is on record as “A (100)”.
`CC(C)NC(=O)c1c(C(=O)Nc2ccc(C(F)(F)F)cc2)cccc1[N+](=O)[O-]` [compound 606]: in test [1], the “Insecticidal effect on rice leafroller (Test Example 3), judged grade” value (“Insecticidal effect on rice leafroller” below) is “A (100)”. Besides, the “Insecticidal effect on diamondback moth (Test Example 1), judged grade” value (“Insecticidal effect on diamondback moth” below) in test [2] was “A (100)”. Also, in test [3], the “Insecticidal effect on common cutworm (Test Example 2), judged grade” value (“Insecticidal effect on common cutworm” for short) is on record as “D (79-50)”.
As to `Cc1c(Br)ccc(NC(=O)c2c(Br)cccc2C(=O)NC(C)C)c1C` [compound 312], in test [1] (setting [7]), the “Insecticidal effect, Test Example 3” value is on record as “A (100)”. Further, in test [2] (setting [8]), the “Insecticidal effect, Test Example 1” value is reported as “A (100)”. Further, in test [3] (setting [9]), the “Insecticidal effect, Test Example 2” value is listed as “A (100)”.
For `C#CC(C)(C)NC(=O)c1ccccc1C(=O)Nc1ccc(C(F)(F)C(F)(F)F)cc1C` [compound 1414], in test [1] (setting [4]), the “Insecticidal effect, Test Example 3” value is listed as “A (100)”. Also, in test [2] (setting [5]), the “Insecticidal effect, Test Example 1” value is on record as “A (100)”. The “Insecticidal effect, Test Example 2” value in test [3] (setting [6]) is “A (100)”.
As for `Cc1c(Cl)cccc1NC(=O)c1c(Br)cccc1C(=O)NC(C)C` [compound 305], the “Insecticidal effect, Test Example 3” value in test [1] (setting [7]) is “A (100)”. The “Insecticidal effect, Test Example 1” value in test [2] (setting [8]) is “A (100)”. In addition, in test [3] (setting [9]), the “Insecticidal effect, Test Example 2” value was “A (100)”.
Turning to `Cc1cc(Cl)ccc1NC(=O)c1c(Cl)cccc1C(=O)NC(C)C` [compound 214], the “Insecticidal effect, Test Example 3” value in test [1] (setting [7]) is “A (100)”. The “Insecticidal effect, Test Example 1” value in test [2] (setting [8]) is given as “A (100)”. Also, the “Insecticidal effect, Test Example 2” value in test [3] (setting [9]) was “A (100)”.
Consider `C#CC(C)(C)NC(=O)c1cccc(Cl)c1C(=O)Nc1ccc(C(F)(F)C(F)(F)F)cc1C` [compound 1467], for which the “Insecticidal effect (Test Example 3), judged from mortality” value in test [1] (setting [7]) was “A (100)”. Besides, the “Insecticidal effect (Test Example 1), judged from mortality” value in test [2] is “A (100)”. The “Insecticidal effect (Test Example 2), judged from mortality” value in test [3] (setting [9]) is “A (100)”.
As to `CC(C)NC(=O)c1c(I)cccc1C(=O)Nc1ccc(C(F)(C(F)(F)F)C(F)(F)F)cc1` [compound 351], in test [1] (setting [7]), the “Insecticidal effect, Test Example 3” value is on record as “A (100)”. Moreover, the “Insecticidal effect, Test Example 1” value in test [2] (setting [8]) is “A (100)”. In addition, the “Insecticidal effect, Test Example 2” value in test [3] (setting [9]) is “A (100)”.
In the case of `CCN(CC)C(=O)c1c(Cl)cccc1C(=O)Nc1ccc(C(F)(C(F)(F)F)C(F)(F)F)cc1C` [compound 1537], in test [1] (setting [7]), the “Insecticidal effect (Test Example 3), judged from mortality” value was “A (100)”. Moreover, the “Insecticidal effect (Test Example 1), judged from mortality” value in test [2] is “A (100)”. For the same molecule, in test [3] (setting [9]), the “Insecticidal effect (Test Example 2), judged from mortality” value was “A (100)”.
For `Cc1cc(Cl)ccc1NC(=O)c1cccc(I)c1C(=O)NC(C)(C)C` [compound 941], the “Insecticidal effect, Test Example 3” value in test [1] (setting [4]) is “A (100)”. The “Insecticidal effect, Test Example 1” value in test [2] (setting [5]) was “A (100)”. Further, the “Insecticidal effect, Test Example 2” value in test [3] (setting [6]) is listed as “A (100)”.
Take `COCC(C)NC(=O)c1c(I)cccc1C(=O)Nc1ccc(C(F)(F)C(F)(F)F)cc1C` (stereo not drawn) [compound 1031]: in test [1] (setting [4]), the “Insecticidal effect, Test Example 3” value is listed as “A (100)”. In addition, the “Insecticidal effect, Test Example 1” value in test [2] (setting [5]) is listed as “A (100)”. Also, the “Insecticidal effect, Test Example 2” value in test [3] (setting [6]) was “A (100)”.
For the molecule `CC(C)NC(=O)c1c(Br)cccc1C(=O)Nc1ccc(OC(F)(F)F)cc1` [Compound No. 262, 3-bromo-N^1-(4-trifluoromethoxyphenyl)-N^2-isopropylphthalic acid diamide], the “Insecticidal effect, Test Example 3” value in test [1] (setting [7]) is “D (79-50)”. Further, the “Insecticidal effect, Test Example 1” value in test [2] (setting [8]) was “A (100)”. Moreover, the “Insecticidal effect, Test Example 2” value in test [3] (setting [9]) was “A (100)”.
In the case of `Cc1cc(C(F)(F)C(F)(F)F)ccc1NC(=O)c1cccc(Br)c1C(=O)NC(C)C` [compound 278], the “Insecticidal effect, Test Example 3” value in test [1] (setting [7]) is on record as “A (100)”. Moreover, the “Insecticidal effect, Test Example 1” value in test [2] (setting [8]) is recorded as “A (100)”. The “Insecticidal effect, Test Example 2” value in test [3] (setting [9]) was “A (100)”.
With `CC(C)NC(=O)c1c(I)cccc1C(=O)Nc1ccc(C(F)(F)C(F)(F)F)cc1C(F)(F)F` [compound 1387], the “Insecticidal effect, Test Example 3” value in test [1] (setting [4]) is reported as “A (100)”. In addition, the “Insecticidal effect, Test Example 1” value in test [2] (setting [5]) was “A (100)”. Moreover, the “Insecticidal effect, Test Example 2” value in test [3] (setting [6]) is given as “A (100)”.
In the case of `C#CC(C)(C)NC(=O)c1c(Cl)cccc1C(=O)Nc1ccc(C(F)(F)C(F)(F)F)cc1C` [compound 1466], the “Insecticidal effect (Test Example 3), judged from mortality” value in test [1] (setting [7]) is “A (100)”. The “Insecticidal effect (Test Example 1), judged from mortality” value in test [2] is recorded as “A (100)”. Moreover, in test [3] (setting [9]), the “Insecticidal effect (Test Example 2), judged from mortality” value is “A (100)”.
`Cc1cc(C(F)(C(F)(F)F)C(F)(F)F)ccc1NC(=O)c1ccccc1C(=O)NC(C)(C)C` [compound 1037]: in test [1] (setting [4]), the “Insecticidal effect, Test Example 3” value is “A (100)”. For the same molecule, the “Insecticidal effect, Test Example 1” value in test [2] (setting [5]) is recorded as “A (100)”. Also, the “Insecticidal effect, Test Example 2” value in test [3] (setting [6]) is on record as “A (100)”.
Consider `CC(C)NC(=O)c1c(I)cccc1C(=O)Nc1ccc(Br)cc1` [compound 346], for which the “Insecticidal effect, Test Example 3” value in test [1] (setting [7]) is “A (100)”. Besides, the “Insecticidal effect, Test Example 1” value in test [2] (setting [8]) was “A (100)”. In addition, the “Insecticidal effect, Test Example 2” value in test [3] (setting [9]) is given as “C (89-80)”.
Turning to `Cc1cc(SC(F)(F)C(F)(F)F)ccc1NC(=O)c1c(F)cccc1C(=O)NC(C)C` [compound 906], the “Insecticidal effect on rice leafroller” value in test [1] is “A (100)”. Moreover, the “Insecticidal effect on diamondback moth” value in test [2] is “A (100)”. Besides, the “Insecticidal effect on common cutworm” value in test [3] is reported as “D (79-50)”.
In the case of `CC(C)NC(=O)c1cccc(I)c1C(=O)Nc1ccc(OC(F)F)c(C(F)(F)F)c1` [compound 471], in test [1], the “Insecticidal effect on rice leafroller” value is “A (100)”. Besides, in test [2], the “Insecticidal effect on diamondback moth” value is given as “A (100)”. For the same molecule, in test [3], the “Insecticidal effect on common cutworm” value is given as “A (100)”.
On to `CC(C)NC(=O)c1cccc(Br)c1C(=O)Nc1ccc(OC(F)(F)F)cc1Cl` [compound 323], for which the “Insecticidal effect, Test Example 3” value in test [1] (setting [7]) was “A (100)”. Moreover, the “Insecticidal effect, Test Example 1” value in test [2] (setting [8]) is recorded as “A (100)”. Further, the “Insecticidal effect, Test Example 2” value in test [3] (setting [9]) was “C (89-80)”.
As to `Cc1cc(C(F)(F)C(F)(F)F)ccc1NC(=O)c1cccc(I)c1C(=O)NC(C)C` [compound 372, 3-iodo-N^1-(4-pentafluoroethyl-2-methylphenyl)-N^2-isopropyl-phthalic acid diamide], the “Insecticidal effect, Test Example 3” value in test [1] (setting [7]) is on record as “A (100)”. Also, the “Insecticidal effect, Test Example 1” value in test [2] (setting [8]) is “A (100)”. Moreover, in test [3] (setting [9]), the “Insecticidal effect, Test Example 2” value was “A (100)”.
For `CC(C)(C)NC(=O)c1c(I)cccc1C(=O)Nc1ccc(C(F)(F)C(F)(F)F)cc1Br` [compound 1562], in test [1] (setting [7]), the “Insecticidal effect (Test Example 3), judged from mortality” value was “A (100)”. Moreover, the “Insecticidal effect (Test Example 1), judged from mortality” value in test [2] is “A (100)”. For the same molecule, the “Insecticidal effect (Test Example 2), judged from mortality” value in test [3] (setting [9]) is on record as “A (100)”.
For `Cc1cc(C(F)(F)C(F)(F)F)ccc1NC(=O)c1cccc(I)c1C(=O)NC1CCCC1` [compound 991], the “Insecticidal effect, Test Example 3” value in test [1] (setting [4]) is reported as “A (100)”. Besides, in test [2] (setting [5]), the “Insecticidal effect, Test Example 1” value was “A (100)”. Further, the “Insecticidal effect, Test Example 2” value in test [3] (setting [6]) is on record as “A (100)”.
As to `CC(C)NC(=O)c1c(Cl)cccc1C(=O)Nc1ccc(C(F)(C(F)(F)F)C(F)(F)F)cc1Cl` [compound 126], the “Insecticidal effect, Test Example 3” value in test [1] (setting [7]) is reported as “A (100)”. For the same molecule, the “Insecticidal effect, Test Example 1” value in test [2] (setting [8]) is “A (100)”. The “Insecticidal effect, Test Example 2” value in test [3] (setting [9]) is “A (100)”.
